# Biological target: T1, Aldo-keto reductase family 1 member B1 (Homo sapiens, UniProt P15121)
# Assay: Inhibition of human placental aldose reductase (HPAR) activity with glyceraldehyde as substrate
row,IC50 [nM],SMILES
1,3870,COc1ccc(Cl)cc1C1NC(=O)NC1=O (centres undefined)
2,250,CCCS(=O)(=O)c1ccc(Cl)cc1C1NC(=O)NC1=O (centres undefined)
3,230,O=C1NC(=O)C(c2cc(Cl)ccc2S(=O)(=O)Nc2ccc(F)cc2)N1 (centres undefined)
4,270,Cc1cc(Cl)cc(C2NC(=O)NC2=O)c1S(C)(=O)=O (centres undefined)
5,150,NS(=O)(=O)c1ccc(Cl)cc1C1NC(=O)NC1=O (centres undefined)
6,30,O=C1NC(=O)C(c2cc(Cl)ccc2S(=O)(=O)NCc2ccccc2)N1 (centres undefined)
7,380,CC(C)S(=O)(=O)c1ccc(Cl)cc1C1NC(=O)NC1=O (centres undefined)
8,5630,O=C1NC(=O)C(c2cc(Cl)ccc2S(=O)(=O)NCCCCc2ccccc2)N1 (centres undefined)
9,470,O=C1NC(=O)C(c2cc(Cl)ccc2[S+]([O-])Cc2ccc(Cl)cc2)N1 (centres undefined)
10,1260,O=C1NC(=O)C(c2cc(Cl)ccc2S(=O)(=O)NCCc2ccccc2)N1 (centres undefined)
11,100,O=C1NC(=O)C(c2cc(Cl)ccc2S(=O)(=O)NCCCc2ccccc2)N1 (centres undefined)
12,610,CS(=O)(=O)c1c(Cl)cc(Cl)cc1C1NC(=O)NC1=O (centres undefined)
13,580,CS(=O)(=O)c1c(C2NC(=O)NC2=O)cc(Cl)cc1C(F)(F)F (centres undefined)
14,230,CCCCCCS(=O)(=O)c1ccc(Cl)cc1C1NC(=O)NC1=O (centres undefined)
15,1200,O=C1NC(=O)C(c2cc(Cl)ccc2SCc2ccc(Cl)cc2)N1 (centres undefined)
16,220,O=C1NC(=O)C(c2cc(Cl)ccc2S(=O)(=O)CCc2ccc(Cl)cc2)N1 (centres undefined)
17,190,CCCCCNS(=O)(=O)c1ccc(Cl)cc1C1NC(=O)NC1=O (centres undefined)
18,580,CCCNS(=O)(=O)c1ccc(Cl)cc1C1NC(=O)NC1=O (centres undefined)
19,7470,COc1ccc(F)cc1C1NC(=O)NC1=O (centres undefined)
20,50,CCCCCS(=O)(=O)c1ccc(Cl)cc1C1NC(=O)NC1=O (centres undefined)
21,130,CNS(=O)(=O)c1ccc(Cl)cc1C1NC(=O)NC1=O (centres undefined)
22,610,CS(=O)(=O)c1ccc(F)cc1C1NC(=O)NC1=O (centres undefined)
23,180,CCS(=O)(=O)c1ccc(Cl)cc1C1NC(=O)NC1=O (centres undefined)
24,620,CSc1ccc(Cl)cc1C1NC(=O)NC1=O (centres undefined)
25,4470,CN(C)S(=O)(=O)c1ccc(Cl)cc1C1NC(=O)NC1=O (centres undefined)
26,270,O=C1NC(=O)C(c2cc(Cl)ccc2S(=O)(=O)Cc2ccc(Cl)cc2)N1 (centres undefined)

# Biological target: T1, Aldo-keto reductase family 1 member B1
# Assay: Compound was evaluated for inhibition of human placental aldose reductase (HPAR) activity with glyceraldehyde as substrate
row,IC50 [nM],SMILES
1,250,C[S+]([O-])c1ccc(Cl)cc1C1NC(=O)NC1=O (centres undefined)
2,700,CCCCNS(=O)(=O)c1ccc(Cl)cc1C1NC(=O)NC1=O (centres undefined)
3,50,CS(=O)(=O)c1ccc(Cl)cc1C1NC(=O)NC1=O (centres undefined)

# Source: ChEMBL document CHEMBL1124482, “Rotationally restricted mimics of rigid molecules: nonspirocyclic hydantoin aldose reductase inhibitors” (J Med Chem, 1989)
